Reference: patent US8637038B2, “Methods for inhibiting allograft rejection” (Rigel Pharmaceuticals, Inc., priority 2011, dated 2014)
Where “and” joins values, the source holds several entries; their conditions need not be identical. Identical values can stand only once. Like-named read-outs stand apart in the source and are kept apart here.

How the values were obtained:
[1] = tested on: human peripheral blood lymphocytes; test: Mixed lymphocyte reaction (MLR); type: cell-based
Method: (§1) The activity of Compound III and Compound I was assessed in a panel of cell-based assays. Compound III and Compound I are selective inhibitors of JAK1/3-dependent signaling. Data for a non-selective JAK inhibitor (Compound IV) is shown for reference. Mixed lymphocyte reactions (MLRs) were performed by incubating freshly prepared naive human peripheral blood lymphocytes from one donor with CD80+/CD86+ mature Dendritic Cells derived from a different donor for 5 days. The percentage of CD3+/CD71+ (anti-CD3-APC, Clone HIT3a, anti-CD 71-FITC, Clone M-A712; BD Biosciences, San Jose, Calif.) proliferating cells was assessed by fluorescence-activated cell sorting (FACS; BD Bioscience). Interleukin-2 (IL-2)-dependent human primary T cell proliferation was assessed using CellTiter-Glo® Luminescent Cell Viability Assay (Promega, Madison, Wis.). STAT phosphorylation induced by different cytokines in human primary T cells was measured by intracellular FACS analysis (anti-pY694-STAT5 AlexaFluor488, anti-pY701-STAT1 AlexaFluor488, and anti-pY693-STAT4 AlexaFluor488; BD Biosciences). STAT phosphorylation induced by different cytokines was performed in whole blood after red blood cell lysis (Lyse/Fix buffer, BD Biosciences) and methanol permeabilization. Interferon-γ (IFN-γ) signaling was assessed in the U937 monocytic cell line by measuring ICAM-1 surface expression by FACS (ICAM-1-APC, BD Bioscience).

JAK1/Tyk2 [2] = test: IFN-γ T cell phospho-STAT1; type: cell-based; settings: Homo sapiens
Method: as §1, with “STAT phosphorylation induced by different cytokines was performed in whole blood after red blood cell lysis (Lyse/Fix buffer, BD Biosciences) and methanol permeabilization.” left out

EGFR = target: T1, EGFR (Homo sapiens, UniProt P00533); test: EGF HeLa phospho-EGFR; type: cell-based
T1 construct: Growth factor-dependent protein phosphorylation was detected in HeLa cells; endogenous in cells; host or cells: HeLa
T1 sequence (P00533 25-1210): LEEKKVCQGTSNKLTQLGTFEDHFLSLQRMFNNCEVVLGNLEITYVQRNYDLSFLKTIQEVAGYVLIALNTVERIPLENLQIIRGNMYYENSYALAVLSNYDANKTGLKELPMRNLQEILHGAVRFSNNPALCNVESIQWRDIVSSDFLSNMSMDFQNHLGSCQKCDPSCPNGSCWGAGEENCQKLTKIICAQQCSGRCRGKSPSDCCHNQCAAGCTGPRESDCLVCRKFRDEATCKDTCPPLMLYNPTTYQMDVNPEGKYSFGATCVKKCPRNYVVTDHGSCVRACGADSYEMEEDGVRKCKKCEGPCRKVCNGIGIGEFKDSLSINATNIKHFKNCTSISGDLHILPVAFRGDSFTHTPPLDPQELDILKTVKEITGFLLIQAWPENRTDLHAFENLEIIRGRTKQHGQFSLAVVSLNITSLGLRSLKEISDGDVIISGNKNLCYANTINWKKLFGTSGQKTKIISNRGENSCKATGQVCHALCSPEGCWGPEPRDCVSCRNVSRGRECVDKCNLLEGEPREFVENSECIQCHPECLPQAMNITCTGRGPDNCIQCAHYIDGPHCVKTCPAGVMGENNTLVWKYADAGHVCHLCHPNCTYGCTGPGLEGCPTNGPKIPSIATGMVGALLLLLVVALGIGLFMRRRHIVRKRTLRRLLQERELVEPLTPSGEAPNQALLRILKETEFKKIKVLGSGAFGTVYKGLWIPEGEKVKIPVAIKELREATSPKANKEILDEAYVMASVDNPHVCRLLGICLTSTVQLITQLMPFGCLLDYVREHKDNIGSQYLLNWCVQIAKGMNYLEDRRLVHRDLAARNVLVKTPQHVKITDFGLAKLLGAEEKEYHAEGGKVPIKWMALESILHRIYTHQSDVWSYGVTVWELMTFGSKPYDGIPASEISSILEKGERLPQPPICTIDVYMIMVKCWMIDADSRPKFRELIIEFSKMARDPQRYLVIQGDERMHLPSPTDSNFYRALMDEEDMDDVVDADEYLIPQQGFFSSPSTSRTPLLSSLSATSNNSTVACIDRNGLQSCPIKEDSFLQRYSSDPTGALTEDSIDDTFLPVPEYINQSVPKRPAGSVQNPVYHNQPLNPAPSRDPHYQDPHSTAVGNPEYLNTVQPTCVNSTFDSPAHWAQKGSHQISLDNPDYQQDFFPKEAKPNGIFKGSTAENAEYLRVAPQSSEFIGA
Method: Growth factor-dependent protein phosphorylation was detected in HeLa cells by staining permeabilized cells with phospho-specific antibodies and quantified by chemiluminescence (Luminator, Wallac Multilabel Counter; Perkin Elmer). Akt phosphorylation was measured following insulin stimulation and EGFR phosphorylation was measured following EGF stimulation (Phospho-AKT, Cell signaling technology, Danvers, Mass.; 1 μM Insulin, Millipore, Billerica, Mass.; Phospho-EGFR, tyr1173, clone 53A3, Cell Signaling Technology; 200 ng/ml recombinant human EGF, PeproTech, Hamburg, Germany). Human umbilical vein endothelial cells (HUVECs) were stimulated with VEGF and VEGFR2 phosphorylation was assessed by ELISA (100 ng/ml VEGF165, R&D Systems; Rabbit anti-phospho-VEGFR2 mAb, Cell Signaling Technology).

JAK1/Tyk2 [3] = test: IFN-γ whole blood lymphocytes phospho-STAT1; type: cell-based; settings: Lymphocyte, read-out: IFN-γ whole blood lymphocytes phospho-STAT1 EC50
Method: as §1, with “STAT phosphorylation induced by different cytokines was performed in whole blood after red blood cell lysis (Lyse/Fix buffer, BD Biosciences) and methanol permeabilization.” left out

[4] = tested on: BN-to-Lew heterotopic heart transplantations; test: Graft survival study after 10-day treatment, with combination index; type: in vivo, rat; settings: no medication 7±0 days
Excerpt: Male Brown Norway (BN) and Lewis (Lew) rats weighing 350 g were purchased from Harlan (Indianapolis, Ind.) and were housed under conventional conditions. All animals were fed standard rat chow and water ad libitum and received humane care in compliance with the Principles of Laboratory Animal Care formulated by the National Society for Medical Research and the Guide for the care and Use of Laboratory Animals published by the National Institutes of Health (National Institutes of Health publication No. 85-23, revised 1985). Allogeneic (BN-to-Lew) and syngeneic (Lew-to-Lew) heterotopic heart transplantations were performed as described previously (Ono et al., J. Thorac. Cardiovasc. Surg. 57:225-229, 1969). In brief, rats were anaesthetized using 2% isoflurane. The donor received an intravenous bolus of 500 I.U. heparin. Cardiac arrest was achieved using 20 ml Bretschneider solution (Custodiol, Dr. F. Koehler Chemie, Bensheim, Germany). […] Heart-beating score was assessed directly after transplantation for each animal from score 0 (no palpable contraction) to 4 (strong and regular contraction). Only animals with beating scores of 4 were included into the study.
Compound I and Compound III were provided by Rigel (South San Francisco, Calif.) and Tacrolimus was provided by Astellas (Munich, Germany). All drugs were administrated orally each in two different concentrations: Compound I LD (15 mg/kg BID; n=6) and HD (60 mg/kg BID; n=6); Compound III LD (5 mg/kg BID; n=6) and HD (20 mg/kg BID; n=6); Tac LD (1 mg/kg QD; n=6) and HD (4 mg/kg QD; n=6). Administration of all drugs was performed every day at the same time points. Tacrolimus was applied only once a day (QD) every 24 hours. During administration of Compound I (BID) and Compound III (BID) a 12 hour pause was kept in between each drug application.
BN-to-Lew heterotopic heart transplantations were performed. Recipient animals were treated for 10 days according to Table 1 (10 day survival study group) and graft survival was monitored by daily palpation of the beating donor heart through the abdominal wall. Scoring was assessed according to heart-beating score of 0 to 4. The time of rejection was defined as the last day of palpable cardiac contractions and graft rejection was confirmed by laparotomy.
The median-effect principle of Chou (in Synergism and Antagonism in Chemotherapy, Chou and Rideout, eds, pp. 61-102, Academic Press, 1991) is based on the premise that the effect of each agent is related to its dose and, therefore, can be calculated using the following equation: (fa/fu)=(D/Dm)m, where fa and fu represent the fractions of the system that are affected (% inhibition or rather days of survival beyond controls) and unaffected (1−fa), respectively, by the drug at dose D. Full protection (fa=1) is defined as at least a 28-day survival of allografts. Dm is the dose required for 50% inhibition (ED50), the median effect (m) is a coefficient that describes the sigmoidicy of the dose-effect curve. The interaction between two drugs is assessed by the combination index (CI) equation for the doses to achieve x % inhibition:
[formula] for the mutually nonexclusive case, where each drug has a different mode of action. A computer software program was used to determine the dose-effect parameters (Dm, m, and r), and the CI values (CalcuSyn, Biosoft, Cambridge, United Kingdom).
Graft survival was monitored by daily palpation of the beating donor heart through the abdominal wall and treatment of animals was stopped after 10 days.

[5] = read-out: EC50, proliferative response of human primary T-cells in the mixed lymphocyte reaction
[6] = HD (Compound I 60 mg/kg BID, Compound III 20 mg/kg BID, Tac 4 mg/kg QD) for 10 days
[7] = LD (Compound I 15 mg/kg BID, Compound III 5 mg/kg BID, Tac 1 mg/kg QD) for 10 days

SMILES	EC50 ([1]; 120 h, 5 days, CD3+/CD71+ proliferating cells by FACS, read-out: MLR EC50)	EC50 [1, 5]	EC50 (JAK1/Tyk2 [2]; upstream kinases JAK1/Tyk2, read-out: IFN-γ T cell phospho-STAT1 EC50)	EGF HeLa phospho-EGFR EC50 (EGFR)	EC50 (JAK1/Tyk2 [3]; whole blood, JAK1/Tyk2)	graft survival, mean [4, 6]	graft survival, mean [4, 7]	EC50 ([1]; 120 h, read-out: MLR EC50)	EC50 (JAK1/Tyk2 [2]; read-out: IFN-γ T cell phospho-STAT1 EC50)	EC50 (JAK1/Tyk2 [3])
COc1cc(Nc2ncc(C)c(Nc3ccc4oc(=O)[nH]c4c3)n2)cc(C)c1F [Compound I, 5-(2-(4-fluoro-3-methoxy-5-methylphenylamino)-5-methylpyrimidin-4-ylamino)benzo[d]oxazol-2(3H)-one]	16 ± 7 nM	16 nM	9 ± 7 nM	Inactive	153 ± 33 nM	22 ± 5 days and 22 ± 6 days	15 ± 3 days	–	–	–
COc1cc(Nc2ncc(C)c(Nc3ccc4oc(=O)[nH]c4c3)n2)cc(C)c1C [Compound III, 5-(2-(3-methoxy-4,5-dimethylphenylamino)-5-methylpyrimidin-4-ylamino)benzol[d]oxazol-2-(3H)-one]	–	22 nM	–	Inactive	–	20 ± 4 days and 20 ± 2 days	13 ± 2 days	22 ± 6 nM	7 ± 1 nM	511 ± 279 nM
